# Literature values as cited in Sander's compilation of Henry's law constants (doi:10.1021/es00169a013).
# Experiment: Henry solubility constant Hcp at 298.15 K (mol/(m3 Pa))
# Conditions: reference: Dunnivant et al. (1988); cited value
row,Structure (SMILES),Henry solubility constant Hcp
1,"Clc1ccc(-c2ccc(Cl)cc2)cc1 [4,4'-dichlorobiphenyl]",0.068
2,"Clc1cc(Cl)c(-c2c(Cl)cc(Cl)cc2Cl)c(Cl)c1 [2,2',4,4',6,6'-hexachlorobiphenyl]",0.086
3,"Clc1cccc(Cl)c1-c1c(Cl)cccc1Cl [2,2',6,6'-tetrachlorobiphenyl]",0.067
4,"Clc1cc(Cl)c(-c2cc(Cl)c(Cl)cc2Cl)cc1Cl [2,2',4,4',5,5'-hexachlorobiphenyl]",0.08
